In brackets after ≈: the same amount, converted by molar mass. Read-outs that look alike come from different tables or passages of the source. Some results are limits rather than exact numbers.

For data set [1] the following is noted: for concentration of uncomplexed propofol in solution / concentration of uncomplexed propofol in solution, % of the total: binding constant 3800 M^−1.
The nature of another data set: physchem. The following applies: water, solubility in water.
The conditions of data set [2]: in the absence of a solubilizing agent; cited from earlier work.
For data set [3] the following is noted: intravenous injection of a therapeutic dose; cited from earlier work.
A further data set relates to hemolysis. The following applies: in concentrations typically used to solubilize pharmaceutical formulations; FIG. 1 (Thompson 1997); cited from earlier work.
The mark [4] stands for this setting: CAPTISOL cyclodextrin 14.4% w/v (0.0665M).
Setting [5] is: CAPTISOL cyclodextrin 50% w/v (0.231M).

Consider `CC(C)c1cccc(C(C)C)c1O` [propofol, 2,6-diisopropylphenol], for which the solubility in water is 150 µg/mL (≈ 841 µM). Moreover, in data set [1] (setting [4]), the “concentration of uncomplexed propofol in solution” value is on record as about 0.00124 M and the “concentration of uncomplexed propofol in solution, % of the total” value is “about 2.21%”. For the same compound, in data set [1] (setting [5]), the “concentration of uncomplexed propofol in solution” value was about 0.000084 M and the “concentration of uncomplexed propofol in solution, % of the total” value is on record as “about 0.15%”. The solubility in the data set “physchem” is about 150 µg/mL (≈ 841 µM). Moreover, the water solubility entry in data set [2] is given as “approximately 0.154 mg/mL”. The “time to induction of anesthesia from the start of injection” value in data set [3] is at most 40 s.
Take “Sulfobutyl Ether-β-Cyclodextrin [CAPTISOL® cyclodextrin]”: in data set [1] (propofol 10 mg/mL), the “CAPTISOL® cyclodextrin concentration required to raise aqueous propofol from 0.15 mg/mL to 10 mg/mL” value was found to be 15 % w/v. Moreover, the hemolytic behavior entry in the data set with hemolysis was “essentially no hemolytic behavior”.

The values are drawn from patent publication US7034013B2 (priority 2001, dated 2006).
